Assay results as given in the OPERA property sets (Mansouri et al. 2018).
≈ marks a conversion by molar mass, not a printed value.

Cc1c([C@H](C)[C@@H]2NC[C@@H](C)C[C@H]2O)ccc2c1C[C@H]1[C@H]2CC=C2C[C@@H](O)CC[C@@]21C
melting point: 206 °C

CCc1cccc(C)c1N(C(=O)CCl)[C@@H](C)COC
boiling point: 282 °C

O=c1cc(CN2CCOCC2)c2cc(O)c(O)cc2o1
melting point: 232 °C

C[C@@H]1CCCCN1
boiling point: 120 °C | log10 vapour pressure (mmHg): 1.29

O=C(O)/C=C(/Br)C(=O)O
melting point: 163 °C

ClC1=C(Cl)C2(Cl)[C@@H]3C[C@@H](Cl)[C@@H](Cl)[C@@H]3C1(Cl)C2(Cl)Cl (mixture of isomers)
log10 Koa: 8.89

C=CCC1(C(C)C)C(=O)NC(=O)NC1=O
melting point: 141 °C

Clc1nc2ccccc2o1
boiling point: 202 °C

FC(F)(Cl)C(Cl)(Cl)C(F)(F)Cl
boiling point: 112 °C | melting point: -42.9 °C

CCC(C)(C)C(C)(C)C
boiling point: 140 °C | log10 vapour pressure (mmHg): 0.976 | melting point: -9.8 °C

NCCCCCCCCCCN
melting point: 62.5 °C

CNC(=O)Oc1ccc(SC)c(C)c1
melting point: 118 °C

COC(=O)CCCCCCC(=O)OC
boiling point: 268 °C | melting point: -3.1 °C

CC(C)CCC(C)C
boiling point: 109 °C | log10 biodegradation half-life (days): 1.4 | log10 vapour pressure (mmHg): 1.48 | melting point: -91 °C

COC(=O)c1cccc([N+](=O)[O-])c1
melting point: 78 °C

C=C1C[C@]23C[C@@]1(O)CC[C@H]2[C@@]12C=C[C@H](O)[C@@](C)(C(=O)O1)[C@H]2[C@@H]3C(=O)O
melting point: 234 °C

O=C(O)C=Cc1ccco1
melting point: 143 °C

CC1(C)OC[C@@H]2O[C@@]3(C(=O)O)OC(C)(C)O[C@H]3[C@@H]2O1
melting point: 74 °C

COC(=O)c1cccc(OC)c1
boiling point: 248 °C

COC(=O)c1ccc(C)cc1C
boiling point: 232 °C | melting point: -2 °C

CCCCCCCCCCCCCC(=O)Cl
melting point: -1 °C

COC(=O)NC(=S)Nc1ccccc1NC(=S)NC(=O)OC
log10 Koc (L/kg): 3.25 | log10 vapour pressure (mmHg): -7.15

CCC(=O)c1ccco1
melting point: 28 °C

NC(=O)CCl
boiling point: 225 °C | melting point: 121 °C

COc1ccc(N=Nc2ccccc2)cc1
boiling point: 340 °C | melting point: 56 °C

CCCCc1ccc(O)cc1
boiling point: 248 °C | log10 vapour pressure (mmHg): -2.65 | melting point: 22 °C

Cc1cc(C)c(C=O)c(C)c1
boiling point: 238 °C | melting point: 14 °C

CC(=O)Oc1ccc(C(=C2CCCCC2)c2ccc(OC(C)=O)cc2)cc1
melting point: 136 °C

c1ccc(N(CC2CO2)CC2CO2)cc1 (configuration not stated)
ready biodegradability: not readily biodegradable

CCOP(=O)(OCC)SCS(=O)CC (configuration not stated)
solubility: 30.7 mM (≈ 8000 µg/mL)

COc1ccc(C)c(C)c1
boiling point: 202 °C

COc1ccc(CC#N)cc1OC
melting point: 62.8 °C

O=C(Nc1ccccc1)Nc1ccnc(Cl)c1
log10 vapour pressure (mmHg): -9.46 | melting point: 167 °C

CC=Cc1ccccc1O
boiling point: 220 °C | melting point: -6 °C

CCCCCCCCCCCC(=O)Oc1c(Cl)c(Cl)c(Cl)c(Cl)c1Cl
ready biodegradability: not readily biodegradable

Cc1ccc(CCC=O)cc1
boiling point: 223 °C

CC(Oc1c(Cl)cccc1Cl)C1=NCCN1 (configuration not stated)
melting point: 127 °C

O=C(O)c1c(Br)cccc1Br
melting point: 150 °C

CC(C)(C)C(O)C(Oc1ccc(-c2ccccc2)cc1)n1cncn1 (configuration not stated)
melting point: 127 °C

CC(C)OC(=O)C=CC(=O)OC(C)C
boiling point: 280 °C | melting point: 2.1 °C

CC/C(=C\c1ccccc1)[N+](=O)[O-]
boiling point: 308 °C | melting point: 90.5 °C

C[S@](=O)c1ccccc1
boiling point: 264 °C | melting point: 32 °C

Cc1ccc(C[N+](=O)[O-])cc1
melting point: 11.5 °C

Nc1cc(Cl)c(Cl)cc1N
melting point: 160 °C

CCc1ccc2c(c1)CCCC2
boiling point: 244 °C | melting point: -70 °C

C=CC(=O)OCCC
log10 vapour pressure (mmHg): 1.16

COC(=O)[C@@H]1C2CCC(C[C@@H]1OC(=O)c1ccccc1)N2C (some centres not stated)
log10 vapour pressure (mmHg): -6.72 | melting point: 98 °C

O=[N+]([O-])c1cccc2cnccc12
melting point: 110 °C

FC(F)C(F)Cl (configuration not stated)
boiling point: 17 °C

O[C@@H]1CCCC[C@H]1O
melting point: 102 °C
